The values that follow come from patent US20250171431A1, “HETEROCYCLIC INHIBITORS OF IGF-1R FOR TREATMENT OF DISEASE” (HORIZON THERAPEUTICS IRELAND DAC, priority 2023, published 2025).

The test deals with IGF-1R (Homo sapiens (Human), UniProt P08069). In words: Example B-1: IGF-1R Assay (PC3 cells, IGF1 stimulation, AlphaLISA). In kind it is cell-based. The following applies: 200 ng/mL IGF1 stimulation, read-out: Biological Activity against IGF-1R IC50. The method, boiled down: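 PC3 cells were serum-starved 2 h, treated with serially diluted compounds for 2 h, then stimulated with IGF1 (200 ng/mL final) for 30 min. Lysates were read by AlphaLISA; % inhibition was calculated relative to vehicle and EC80 controls, with IC50 values binned into ranges.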
(In general: In Alpha technology, singlet oxygen from a donor bead excites a nearby acceptor bead.)

The structures appear in SMILES notation.

Chain of IGF-1R (P08069 31-1367): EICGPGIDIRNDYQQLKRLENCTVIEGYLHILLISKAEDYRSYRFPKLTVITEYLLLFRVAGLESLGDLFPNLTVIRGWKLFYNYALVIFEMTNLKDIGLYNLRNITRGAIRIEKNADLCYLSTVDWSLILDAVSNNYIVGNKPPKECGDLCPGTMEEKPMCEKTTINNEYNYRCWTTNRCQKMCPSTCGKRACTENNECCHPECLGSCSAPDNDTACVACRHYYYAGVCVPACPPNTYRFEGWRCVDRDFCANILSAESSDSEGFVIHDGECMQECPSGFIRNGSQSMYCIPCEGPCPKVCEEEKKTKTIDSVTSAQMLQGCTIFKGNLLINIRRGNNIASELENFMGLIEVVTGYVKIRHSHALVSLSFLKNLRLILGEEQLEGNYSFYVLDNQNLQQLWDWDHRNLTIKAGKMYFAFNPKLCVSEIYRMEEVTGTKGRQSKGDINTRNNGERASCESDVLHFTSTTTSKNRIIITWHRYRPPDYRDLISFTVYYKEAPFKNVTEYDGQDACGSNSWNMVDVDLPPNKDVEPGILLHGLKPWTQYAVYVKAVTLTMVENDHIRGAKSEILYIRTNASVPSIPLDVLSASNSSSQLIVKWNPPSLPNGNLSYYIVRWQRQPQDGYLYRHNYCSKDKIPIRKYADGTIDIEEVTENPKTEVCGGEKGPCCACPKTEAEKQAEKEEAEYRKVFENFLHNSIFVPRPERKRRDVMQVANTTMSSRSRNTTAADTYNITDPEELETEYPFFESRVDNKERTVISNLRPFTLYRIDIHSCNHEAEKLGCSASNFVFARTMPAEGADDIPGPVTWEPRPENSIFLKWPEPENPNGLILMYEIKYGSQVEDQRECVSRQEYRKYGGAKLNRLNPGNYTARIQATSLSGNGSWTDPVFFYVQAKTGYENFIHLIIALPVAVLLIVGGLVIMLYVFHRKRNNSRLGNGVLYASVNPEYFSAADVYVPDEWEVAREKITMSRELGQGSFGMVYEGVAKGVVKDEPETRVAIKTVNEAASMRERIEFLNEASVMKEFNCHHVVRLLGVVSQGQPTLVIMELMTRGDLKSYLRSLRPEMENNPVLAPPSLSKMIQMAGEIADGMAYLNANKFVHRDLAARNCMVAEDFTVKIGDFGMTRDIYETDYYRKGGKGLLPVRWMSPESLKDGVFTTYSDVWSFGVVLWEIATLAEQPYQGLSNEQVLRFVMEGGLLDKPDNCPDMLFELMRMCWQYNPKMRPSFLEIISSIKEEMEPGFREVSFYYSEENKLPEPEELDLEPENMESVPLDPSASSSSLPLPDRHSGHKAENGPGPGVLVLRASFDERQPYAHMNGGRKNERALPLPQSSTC

In general, IC50 refers to the concentration that inhibits the measured activity by half. `COc1cc(Nc2nccc(Nc3cnc4cc(F)c(F)cc4c3)n2)cnc1N1CCOC(C)(C)C1` [Compound 157, N4-(6,7-difluoroquinolin-3-yl)-N2-(6-(2,2-dimethylmorpholino)-5-methoxypyridin-3-yl)pyrimidine-2,4-diamine]: the IC50 was in the range of 500 to 2000 nM.
Then `c1ccc2ncc(Nc3ccnc(Nc4ccc(OCCCN5CCCCC5)c(OCC5CC5)c4)n3)cc2c1` [Compound 425, 2-[3-(cyclopropylmethoxy)-4-(3-piperidinopropoxy)phenylamino]-4-(3-quinolylamino)pyrimidine], with not above 500 nM; and `Oc1ccc2cc(Nc3ccnc(Nc4ccc(OCCCN5CCOCC5)cc4)n3)cnc2c1` [Compound 408, 3-{2-[p-(3-morpholinopropoxy)phenylamino]-4-pyrimidinylamino}-7-quinolinol], with not above 500 nM; and `COc1cc(Nc2nccc(Nc3cnc4cc(C)ccc4c3)n2)ccc1OCCCN1CCCCC1` [Compound 98, 2-[3-methoxy-4-(3-piperidinopropoxy)phenylamino]-4-(7-methyl-3-quinolylamino)pyrimidine], with not above 500 nM.
The result for `COc1cc(Nc2nccc(Nc3cnc(O[C@H]4CCCC[C@H]4O)c(F)c3)n2)ccc1O[C@H]1C[C@@H](N(C)C)C1` [Compound 180, (1R,2S)-2-[3-fluoro-5-(2-{3-methoxy-4-[(1s,3R)-3-(dimethylamino)cyclobutoxy]phenylamino}-4-pyrimidinylamino)-2-pyridyloxy]cyclohexanol] reads not above 500 nM; that for `COc1cc(Nc2nccc(Nc3cnc4c(c3)CCCC4)n2)ccc1OCCCN1CCCCC1` [Compound 374, 2-[3-methoxy-4-(3-piperidinopropoxy)phenylamino]-4-(5,6,7,8-tetrahydro-3-quinolylamino)pyrimidine], not above 500 nM; that for `CC1(C)CCc2ncc(Nc3ccnc(Nc4ccc(OCCCN5CCOCC5)cc4)n3)cc2C1` [Compound 63, 4-(6,6-dimethyl-5,6,7,8-tetrahydro-3-quinolylamino)-2-[p-(3-morpholinopropoxy)phenylamino] pyrimidine], not above 500 nM.
Then `COc1cc(Nc2nccc(Nc3cnc4c(c3)CC[C@@H](C)C4)n2)ccc1OCCCN1CCCCC1` [Compound 71, 4-[(R)-7-methyl-5,6,7,8-tetrahydro-3-quinolylamino]-2-[3-methoxy-4-(3-piperidinopropoxy)phenylamino] pyrimidine], with not above 500 nM.
In the case of `COc1cc(Nc2nccc(Nc3cnc4ccccc4c3)n2)ccc1O[C@H]1C[C@H](N(C)C)C1` [Compound 369, 2-{3-methoxy-4-[(1r,3r)-3-(dimethylamino)cyclobutoxy]phenylamino}-4-(3-quinolylamino)pyrimidine], the IC50 is not above 500 nM.
The result for `O=S1(=O)CCN(CCCOc2ccc(Nc3nccc(Nc4cnc5c(Cl)cccc5c4)n3)cc2)CC1` [Compound 398, 4-(3-{p-[4-(8-chloro-3-quinolylamino)-2-pyrimidinylamino]phenoxy}propyl)-1λ^6,4-thiazinane-1,1-dione] reads not above 500 nM.
As to `COc1cc(Nc2nccc(Nc3cnc4c(F)c(F)ccc4c3)n2)ccc1O[C@H]1C[C@H](N(C)C)C1` [Compound 323, 4-(7,8-difluoro-3-quinolylamino)-2-{3-methoxy-4-[(1r,3r)-3-(dimethylamino)cyclobutoxy]phenylamino}pyrimidine], the IC50 is not above 500 nM.
As to `COc1cc(Nc2nccc(Nc3cnc4c(c3)CC3(CC4)OCCO3)n2)ccc1OCCCN1CCCCC1` [Compound 303, 4-(7′,8′-dihydro-5′H-spiro[1,3-dioxolane-2,6′-quinolin]-3′-ylamino)-2-[3-methoxy-4-(3-piperidinopropoxy)phenylamino] pyrimidine], the 50% inhibitory concentration (IC50) is not above 500 nM.
In the case of `Clc1cc(Nc2nccc(Nc3cnc4ccccc4c3)n2)ccc1N1CCOCC1` [Compound 459, 2-(3-chloro-4-morpholinophenylamino)-4-(3-quinolylamino)pyrimidine], the IC50 was not above 500 nM.
On to `COc1ccc2cc(Nc3ccnc(Nc4ccc(OCCCN5CCCCC5)c(OC)c4)n3)cnc2c1` [Compound 426, 2-[3-methoxy-4-(3-piperidinopropoxy)phenylamino]-4-(7-methoxy-3-quinolylamino)pyrimidine], for which the IC50 was not above 500 nM.
Consider `COc1cc(Nc2nccc(Nc3cnc4c(c3)CC(O)CC4)n2)ccc1O[C@H]1C[C@@H](N(C)C)C1` (some centres unmarked) [Compound 82, 3-(2-{3-methoxy-4-[(1s,3s)-3-(dimethylamino)cyclobutoxy]phenylamino}-4-pyrimidinylamino)-5,6,7,8-tetrahydro-6-quinolinol], for which the IC50 was in the range of 500 to 2000 nM.
As to `COc1cc(Nc2nccc(Nc3cnc4ccc(Cl)cc4c3)n2)ccc1O[C@H]1C[C@H](N2CCS(=O)(=O)CC2)C1` [Compound 25, 4-[(1r,3r)-3-{4-[4-(6-chloro-3-quinolylamino)-2-pyrimidinylamino]-2-methoxyphenoxy}cyclobutyl]-1λ^6,4-thiazinane-1,1-dione], the IC50 was not above 500 nM.
Consider `O=S1(=O)CCN(CCCOc2ccc(Nc3nccc(Nc4cnc5c(c4)OCCO5)n3)cc2)CC1` [Compound 506, 4-(3-{p-[4-(2,3-dihydro-1,4-dioxa-5-aza-7-naphthylamino)-2-pyrimidinylamino]phenoxy}propyl)-1λ^6,4-thiazinane-1,1-dione], for which the IC50 is not above 500 nM.
Take `COc1cc(Nc2nccc(Nc3cc4ccccc4nc3C(N)=O)n2)cnc1O[C@H]1C[C@@H](N(C)C)C1` [Compound 172, 3-((2-((6-((1s,3s)-3-(dimethylamino)cyclobutoxy)-5-methoxypyridin-3-yl)amino)pyrimidin-4-yl)amino)quinoline-2-carboxamide]: the IC50 was not above 500 nM.
Then `COc1cc(Nc2nccc(Nc3cnc4c(c3)CCCC4(C)C)n2)ccc1OCCCN1CCCCC1` [Compound 73, 4-(8,8-dimethyl-5,6,7,8-tetrahydro-3-quinolylamino)-2-[3-methoxy-4-(3-piperidinopropoxy)phenylamino] pyrimidine], with not above 500 nM.
For `COc1cc(Nc2nccc(Nc3cnc4c(c3)CC3(CCCC3)CC4)n2)ccc1O[C@H]1C[C@H](N(C)C)C1` [Compound 79, 4-(7′,8′-dihydro-5′H-spiro[cyclopentane-1,6′-quinolin]-3′-ylamino)-2-{3-methoxy-4-[(1r,3r)-3-(dimethylamino)cyclobutoxy]phenylamino}pyrimidine], the IC50 was not above 500 nM.
Take `COc1cc(Nc2nccc(Nc3cnc4c(c3)CCC(C)(C)C4)n2)ccc1O[C@H]1C[C@H](N(C)C)C1` [Compound 338, 4-(7,7-dimethyl-5,6,7,8-tetrahydro-3-quinolylamino)-2-{3-methoxy-4-[(1r,3r)-3-(dimethylamino)cyclobutoxy]phenylamino}pyrimidine]: the IC50 was not above 500 nM.
In the case of `COc1cc(Nc2nccc(Nc3cc4cccc(Cl)c4[nH]c3=O)n2)ccc1O[C@H]1C[C@H](N(C)C)C1` [Compound 112, 8-chloro-3-(2-{3-methoxy-4-[(1r,3r)-3-(dimethylamino)cyclobutoxy]phenyl-amino}-4-pyrimidinylamino)-1,2-dihydro-2-quinolinone], the IC50 was not above 500 nM.
As to `COc1cc(Nc2nccc(Nc3cnc4c(c3)CCOC4)n2)ccc1OCCCN1CCCCC1` [Compound 54, 4-(6,8-dihydro-5H-7-oxa-1-azanaphth-3-ylamino)-2-[3-methoxy-4-(3-piperidinopropoxy)phenylamino] pyrimidine], the half-inhibitory concentration (IC50) is not above 500 nM.
